Reference: the NIST ThermoML archive (doi:10.1016/j.tca.2018.11.018)

Test: xn = mol fraction of the nth substance listed
Details: 100 kPa, Liquid; for mass density: Vibrating tube method; for viscosity: Falling or rolling sphere viscometry

CCCC[N+](CC)(CC)CC.[Br-] [butyltriethyl ammonium bromide] + O
Details | mass density [kg/m3] | viscosity [mPa·s]
323.15 K, x1 = 0.02 | 1018.3 | –
323.15 K, x1 = 0.04 | 1042.9 | –
323.15 K, x1 = 0.06 | 1062 | –
323.15 K, x1 = 0.08 | 1077.8 | –
323.15 K, x1 = 0.105 | 1092.8 | –
323.15 K, x1 = 0.13 | 1104.2 | –
323.15 K, x1 = 0.16 | 1115 | –
323.15 K, x1 = 0.189 | 1122.5 | –
323.15 K, x1 = 0.22 | 1129.2 | –
323.15 K, x1 = 0.253 | 1134.7 | –
328.15 K, x1 = 0.02 | 1015.8 | 0.812
328.15 K, x1 = 0.04 | 1039.9 | 1.189
328.15 K, x1 = 0.06 | 1059.1 | 1.69
328.15 K, x1 = 0.08 | 1074.2 | 2.252
328.15 K, x1 = 0.105 | 1089.1 | 3.358
328.15 K, x1 = 0.13 | 1100.5 | 4.483
328.15 K, x1 = 0.16 | 1111.2 | 6.266
328.15 K, x1 = 0.189 | 1118.8 | 8.29
328.15 K, x1 = 0.22 | 1125.6 | 10.76
328.15 K, x1 = 0.253 | 1131.2 | 14.11
333.15 K, x1 = 0.02 | 1013.01 | 0.75
333.15 K, x1 = 0.04 | 1036.64 | 1.077
333.15 K, x1 = 0.06 | 1055.6 | 1.514
333.15 K, x1 = 0.08 | 1070.54 | 1.996
333.15 K, x1 = 0.105 | 1085.3 | 2.937
333.15 K, x1 = 0.13 | 1096.66 | 3.847
333.15 K, x1 = 0.16 | 1107.44 | 5.319
333.15 K, x1 = 0.189 | 1115.11 | 7.032
333.15 K, x1 = 0.22 | 1121.89 | 9.062
333.15 K, x1 = 0.253 | 1127.56 | 11.8
338.15 K, x1 = 0.02 | 1010 | 0.7
338.15 K, x1 = 0.04 | 1033.3 | 0.999
338.15 K, x1 = 0.06 | 1052 | 1.363
338.15 K, x1 = 0.08 | 1066.8 | 1.781
338.15 K, x1 = 0.105 | 1081.5 | 2.425
338.15 K, x1 = 0.13 | 1092.8 | 3.339
338.15 K, x1 = 0.16 | 1103.7 | 4.555
338.15 K, x1 = 0.189 | 1111.4 | 5.982
338.15 K, x1 = 0.22 | 1118.2 | 7.687
338.15 K, x1 = 0.253 | 1124 | 9.932
343.15 K, x1 = 0.02 | 1006.6 | 0.655
343.15 K, x1 = 0.04 | 1029.5 | 0.922
343.15 K, x1 = 0.06 | 1048.4 | 1.233
343.15 K, x1 = 0.08 | 1063.1 | 1.601
343.15 K, x1 = 0.105 | 1077.7 | 2.156
343.15 K, x1 = 0.13 | 1089 | 2.959
343.15 K, x1 = 0.16 | 1099.8 | 3.974
343.15 K, x1 = 0.189 | 1107.6 | 5.163
343.15 K, x1 = 0.22 | 1114.6 | 6.602
343.15 K, x1 = 0.253 | 1120.3 | 8.504
348.15 K, x1 = 0.02 | 1003.4 | 0.608
348.15 K, x1 = 0.04 | 1026.5 | 0.876
348.15 K, x1 = 0.06 | 1044.7 | 1.124
348.15 K, x1 = 0.08 | 1059.3 | 1.446
348.15 K, x1 = 0.105 | 1073.8 | 1.931
348.15 K, x1 = 0.13 | 1085.1 | 2.658
348.15 K, x1 = 0.16 | 1096 | 3.489
348.15 K, x1 = 0.189 | 1103.8 | 4.485
348.15 K, x1 = 0.22 | 1110.8 | 5.702
348.15 K, x1 = 0.253 | 1116.7 | 7.325
